ChEMBL document CHEMBL6127118, “Identification of Oral Bioavailable Coumarin Derivatives as Potential AR Antagonists Targeting Prostate Cancer” (J Med Chem, 2024)

How the values were obtained:
[1] = target: T1, Androgen receptor (Homo sapiens, UniProt P10275); assay: Antagonist activity at DHT-induced Androgen receptor in human LNCaP cells transfected with ARR2PB-eGFP incubated for 3 days; format: cell-based
T1 sequence (P10275 whole entry): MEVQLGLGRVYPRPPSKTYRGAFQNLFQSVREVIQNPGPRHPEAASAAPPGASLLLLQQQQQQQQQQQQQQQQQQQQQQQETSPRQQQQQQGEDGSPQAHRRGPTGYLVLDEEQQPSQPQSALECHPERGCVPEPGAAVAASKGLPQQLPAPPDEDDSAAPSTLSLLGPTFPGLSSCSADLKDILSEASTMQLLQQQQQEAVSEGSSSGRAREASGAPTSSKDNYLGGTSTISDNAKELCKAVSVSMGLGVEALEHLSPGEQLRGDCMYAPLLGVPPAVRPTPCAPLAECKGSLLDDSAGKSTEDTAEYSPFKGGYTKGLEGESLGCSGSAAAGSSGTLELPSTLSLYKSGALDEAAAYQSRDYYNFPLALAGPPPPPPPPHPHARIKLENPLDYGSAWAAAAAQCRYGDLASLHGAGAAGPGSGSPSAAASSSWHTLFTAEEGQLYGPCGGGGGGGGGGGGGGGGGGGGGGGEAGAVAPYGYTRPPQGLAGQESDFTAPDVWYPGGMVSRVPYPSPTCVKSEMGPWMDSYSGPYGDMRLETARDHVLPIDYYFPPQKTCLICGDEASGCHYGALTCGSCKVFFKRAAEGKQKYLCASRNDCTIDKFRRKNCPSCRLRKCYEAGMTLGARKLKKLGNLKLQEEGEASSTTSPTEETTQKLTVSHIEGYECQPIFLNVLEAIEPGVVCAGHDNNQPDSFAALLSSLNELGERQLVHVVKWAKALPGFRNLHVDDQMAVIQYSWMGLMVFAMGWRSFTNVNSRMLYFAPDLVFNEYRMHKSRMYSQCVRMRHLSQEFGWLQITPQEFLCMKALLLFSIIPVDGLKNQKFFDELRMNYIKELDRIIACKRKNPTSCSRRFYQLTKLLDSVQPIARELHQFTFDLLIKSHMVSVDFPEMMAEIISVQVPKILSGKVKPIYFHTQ

[2] = target: T2, Mineralocorticoid receptor (Homo sapiens, UniProt P08235); assay: Antagonist activity at aldosterone-induced Mineralocorticoid receptor (unknown origin) transfected in HEK293T cells by Dual-Luciferase Reporter assay
T2 sequence (P08235 whole entry): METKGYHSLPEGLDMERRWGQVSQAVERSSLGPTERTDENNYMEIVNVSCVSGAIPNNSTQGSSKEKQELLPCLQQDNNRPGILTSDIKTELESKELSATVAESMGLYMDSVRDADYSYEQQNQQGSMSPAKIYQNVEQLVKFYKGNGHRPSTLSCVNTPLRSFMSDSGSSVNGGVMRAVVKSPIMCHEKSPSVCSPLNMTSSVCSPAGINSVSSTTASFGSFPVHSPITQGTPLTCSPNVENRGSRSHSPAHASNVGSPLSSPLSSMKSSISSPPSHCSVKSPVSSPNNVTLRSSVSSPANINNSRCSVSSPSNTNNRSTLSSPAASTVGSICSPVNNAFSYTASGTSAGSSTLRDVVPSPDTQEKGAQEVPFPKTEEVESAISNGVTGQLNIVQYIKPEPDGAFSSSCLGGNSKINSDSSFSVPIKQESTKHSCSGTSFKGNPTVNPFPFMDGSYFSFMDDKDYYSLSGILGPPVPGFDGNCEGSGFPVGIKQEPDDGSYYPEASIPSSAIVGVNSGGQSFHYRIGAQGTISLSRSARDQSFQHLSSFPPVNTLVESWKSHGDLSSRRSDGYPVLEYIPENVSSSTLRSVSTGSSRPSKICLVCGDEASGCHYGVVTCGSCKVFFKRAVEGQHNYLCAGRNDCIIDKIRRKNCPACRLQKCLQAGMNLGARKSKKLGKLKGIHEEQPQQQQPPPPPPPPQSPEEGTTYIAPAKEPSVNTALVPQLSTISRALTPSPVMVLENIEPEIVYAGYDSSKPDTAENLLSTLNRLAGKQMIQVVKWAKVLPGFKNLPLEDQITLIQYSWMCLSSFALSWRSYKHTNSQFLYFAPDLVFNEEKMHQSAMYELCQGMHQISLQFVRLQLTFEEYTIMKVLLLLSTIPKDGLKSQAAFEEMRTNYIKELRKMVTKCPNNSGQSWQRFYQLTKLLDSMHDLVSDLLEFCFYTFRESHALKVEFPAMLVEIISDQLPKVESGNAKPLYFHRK

[3] = Cmax in Sprague-Dawley rat at 5 mg/kg, po; format: ADME, organism-based; settings: in vivo
[4] = Clearance in Sprague-Dawley rat at 1 mg/kg, iv; format: ADME, organism-based; settings: in vivo
[5] = test system: PC-3; assay: Antiproliferative activity against androgen independent-human PC-3 cells incubated for 72 hrs by MTT assay; settings: PC-3, 72 h
[6] = Cmax in Sprague-Dawley rat at 1 mg/kg, iv; format: ADME, organism-based; settings: in vivo
[7] = AUC (0 to t) in Sprague-Dawley rat at 1 mg/kg, iv; format: ADME, organism-based; settings: in vivo
[8] = test system: CWR22R; assay: Antiproliferative activity against androgen independent-human 22Rv1 cells incubated for 72 hrs by MTT assay; settings: 22Rv1, 72 h
[9] = test system: DU-145; assay: Antiproliferative activity against androgen independent-human DU-145 cells incubated for 72 hrs by MTT assay; settings: DU-145, 72 h
[10] = Antiproliferative activity against human GES1 cells incubated for 72 hrs by MTT assay; format: toxicity, cell-based; settings: GES1 cells
[11] = AUC (0 to t) in Sprague-Dawley rat at 5 mg/kg, po; format: ADME, organism-based; settings: in vivo
[12] = test system: LNCaP; assay: Antiproliferative activity against androgen dependent-human LNCaP cells incubated for 72 hrs by MTT assay
[13] = test system: LNCaP C4-2B; assay: Antiproliferative activity against androgen independent-human LNCaP C4-2B cells incubated for 72 hrs by MTT assay
[14] = Oral bioavailability in Sprague-Dawley rat at 5 mg/kg; format: ADME, organism-based; settings: in vivo
[15] = Half life in Sprague-Dawley rat at 1 mg/kg, iv; format: ADME, organism-based; settings: in vivo
[16] = Apparent volume of distribution in Sprague-Dawley rat at 1 mg/kg, iv; format: ADME, organism-based; settings: in vivo, read-out: Vz

CCN(CC)c1cc2c(C(F)(F)F)cc(=O)oc2cc1OCc1ccc(Br)cc1
IC50 [1]: > 10000 nM

O=c1cc(C(F)(F)F)c2ccc(OCc3ccc(Br)cc3)cc2o1
IC50 [1]: 590 nM

O=c1cc(C(F)(F)F)c2cc(N(CC(F)(F)F)CC(F)(F)F)c(OCc3ccc(Br)cc3)cc2o1
IC50 [1]: > 10000 nM

C[C@]12CCC(=O)C[C@@H]1CC[C@@H]1[C@@H]2CC[C@]2(C)[C@@H](O)CC[C@@H]12 [STANOLONE]
IC50 [2]: 1.24 nM

O=C(Nc1ccc2c(C(F)(F)F)cc(=O)oc2c1)c1ccc(Br)cc1
IC50 [1]: > 10000 nM

O=c1cc(C(F)(F)F)c2cc(N3CCCC3)c(OCc3ccc(Br)cc3)cc2o1
IC50 [1]: > 10000 nM

O=c1cc(C(F)(F)F)c2ccc(NCc3ccc(O)cc3)cc2o1
IC50 [1]: 640 nM

O=c1cc(C(F)(F)F)c2ccc(NCc3cccc(Br)c3)cc2o1
IC50 [1]: 110 nM

O=c1cc(C(F)(F)F)c2ccc(NCc3ccc(F)cc3)cc2o1
Cmax [3]: 10.8 ng/mL | clearance [4]: 507 mL/min/kg | IC50 [5]: 21300 nM | Cmax [6]: 82.1 ng/mL | AUC(0-t) [7]: 32.4 ng·h/mL | IC50 [8]: 24200 nM | IC50 [9]: 6320 nM | IC50 at 72 h [10]: 16000 nM | AUC(0-t) [11]: 4.09 ng·h/mL | IC50 [12]: 1900 nM | IC50 [13]: 4910 nM | bioavailability [14]: 2.5% | half-life [15]: 12.6 min | IC50 [1]: 24 nM | Vd [16]: 9.26 L/kg

CCN(Cc1cc(F)ccc1F)c1ccc2c(C(F)(F)F)cc(=O)oc2c1
IC50 [1]: 430 nM

CCN(Cc1ccc(Br)cc1)c1ccc2c(C(F)(F)F)cc(=O)oc2c1
IC50 [1]: 100 nM

CCN(Cc1ccc(Cl)cc1)c1ccc2c(C(F)(F)F)cc(=O)oc2c1
IC50 [1]: 78 nM

O=c1cc(C(F)(F)F)c2ccc(NCc3cc(F)ccc3F)cc2o1
IC50 [1]: 34 nM

N#Cc1ccc(CNc2ccc3c(C(F)(F)F)cc(=O)oc3c2)cc1
IC50 [1]: 890 nM

O=c1cc(C(F)(F)F)c2ccc(NCc3ccc(Cl)cc3)cc2o1
Cmax [3]: 258 ng/mL | clearance [4]: 97.7 mL/min/kg | Cmax [6]: 395 ng/mL | AUC(0-t) [7]: 158 ng·h/mL | AUC(0-t) [11]: 103 ng·h/mL | bioavailability [14]: 13% | half-life [15]: 16.2 min | Vd [16]: 2.3 L/kg
